Key:
Type in all cases: functional
[1] = tested on: Macrophage; assay: Antiinflammatory activity in Escherichia coli O6:K2:H1-induced human M1 macrophage assessed as change in 14-HDHA level at 1 uM preincubated for 10 mins followed by Escherichia coli O6:K2:H1-stimulation and measured after 180 mins by UPLC-MS/MS analysis relative to control
[2] = tested on: Macrophage; assay: Antiinflammatory activity in Escherichia coli O6:K2:H1-induced human M1 macrophage assessed as change in 7-HDHA level at 1 uM preincubated for 10 mins followed by Escherichia coli O6:K2:H1-stimulation and measured after 180 mins by UPLC-MS/MS analysis relative to control
[3] = tested on: Macrophage; assay: Antiinflammatory activity in Escherichia coli O6:K2:H1-induced human M1 macrophage assessed as change in 18-HEPE level at 1 uM preincubated for 10 mins followed by Escherichia coli O6:K2:H1-stimulation and measured after 180 mins by UPLC-MS/MS analysis relative to control
[4] = tested on: Macrophage; assay: Antiinflammatory activity in Escherichia coli O6:K2:H1-induced human M1 macrophage assessed as change in PGE2 level at 1 uM preincubated for 10 mins followed by Escherichia coli O6:K2:H1-stimulation and measured after 180 mins by UPLC-MS/MS analysis relative to control
[5] = tested on: Macrophage; assay: Antiinflammatory activity in Escherichia coli O6:K2:H1-induced human M1 macrophage assessed as change in PGD2 level at 1 uM preincubated for 10 mins followed by Escherichia coli O6:K2:H1-stimulation and measured after 180 mins by UPLC-MS/MS analysis relative to control
[6] = tested on: Macrophage; assay: Antiinflammatory activity in Escherichia coli O6:K2:H1-induced human M1 macrophage assessed as change in PGF2alpha level at 1 uM preincubated for 10 mins followed by Escherichia coli O6:K2:H1-stimulation and measured after 180 mins by UPLC-MS/MS analysis relative to control
[7] = tested on: Macrophage; assay: Antiinflammatory activity in Escherichia coli O6:K2:H1-induced human M1 macrophage assessed as change in […] level at 1 uM preincubated for 10 mins followed by Escherichia coli O6:K2:H1-stimulation and measured after 180 mins by UPLC-MS/MS analysis relative to control
[8] = tested on: Macrophage; assay: Antiinflammatory activity in Escherichia coli O6:K2:H1-induced human M1 macrophage assessed as change in LTB4 level at 1 uM preincubated for 10 mins followed by Escherichia coli O6:K2:H1-stimulation and measured after 180 mins by UPLC-MS/MS analysis relative to control
[9] = tested on: Macrophage; assay: Antiinflammatory activity in Escherichia coli O6:K2:H1-induced human M1 macrophage assessed as change in 15-HETE level at 10 uM preincubated for 10 mins followed by Escherichia coli O6:K2:H1-stimulation and measured after 180 mins by UPLC-MS/MS analysis relative to control
[10] = tested on: Macrophage; assay: Antiinflammatory activity in Escherichia coli O6:K2:H1-induced human M1 macrophage assessed as change in 7-HDHA level at 10 uM preincubated for 10 mins followed by Escherichia coli O6:K2:H1-stimulation and measured after 180 mins by UPLC-MS/MS analysis relative to control
[11] = tested on: Macrophage; assay: Antiinflammatory activity in Escherichia coli O6:K2:H1-induced human M1 macrophage assessed as change in 4-HDHA level at 10 uM preincubated for 10 mins followed by Escherichia coli O6:K2:H1-stimulation and measured after 180 mins by UPLC-MS/MS analysis relative to control
[12] = tested on: Macrophage; assay: Antiinflammatory activity in Escherichia coli O6:K2:H1-induced human M1 macrophage assessed as change in 18-HEPE level at 10 uM preincubated for 10 mins followed by Escherichia coli O6:K2:H1-stimulation and measured after 180 mins by UPLC-MS/MS analysis relative to control
[13] = tested on: Macrophage; assay: Antiinflammatory activity in Escherichia coli O6:K2:H1-induced human M2 macrophage assessed as change in 14-HDHA level at 1 uM preincubated for 10 mins followed by Escherichia coli O6:K2:H1-stimulation and measured after 180 mins by UPLC-MS/MS analysis relative to control
[14] = tested on: Macrophage; assay: Antiinflammatory activity in Escherichia coli O6:K2:H1-induced human M2 macrophage assessed as change in 12-HEPE level at 1 uM preincubated for 10 mins followed by Escherichia coli O6:K2:H1-stimulation and measured after 180 mins by UPLC-MS/MS analysis relative to control
[15] = tested on: Macrophage; assay: Antiinflammatory activity in Escherichia coli O6:K2:H1-induced human M2 macrophage assessed as change in 7-HDHA level at 1 uM preincubated for 10 mins followed by Escherichia coli O6:K2:H1-stimulation and measured after 180 mins by UPLC-MS/MS analysis relative to control
[16] = tested on: Macrophage; assay: Antiinflammatory activity in Escherichia coli O6:K2:H1-induced human M2 macrophage assessed as change in 4-HDHA level at 1 uM preincubated for 10 mins followed by Escherichia coli O6:K2:H1-stimulation and measured after 180 mins by UPLC-MS/MS analysis relative to control
[17] = tested on: Macrophage; assay: Antiinflammatory activity in Escherichia coli O6:K2:H1-induced human M2 macrophage assessed as change in PGE2 level at 1 uM preincubated for 10 mins followed by Escherichia coli O6:K2:H1-stimulation and measured after 180 mins by UPLC-MS/MS analysis relative to control
[18] = tested on: Macrophage; assay: Antiinflammatory activity in Escherichia coli O6:K2:H1-induced human M2 macrophage assessed as change in […] level at 1 uM preincubated for 10 mins followed by Escherichia coli O6:K2:H1-stimulation and measured after 180 mins by UPLC-MS/MS analysis relative to control
[19] = tested on: Macrophage; assay: Antiinflammatory activity in Escherichia coli O6:K2:H1-induced human M2 macrophage assessed as change in 5-HETE level at 1 uM preincubated for 10 mins followed by Escherichia coli O6:K2:H1-stimulation and measured after 180 mins by UPLC-MS/MS analysis relative to control
[20] = tested on: Macrophage; assay: Antiinflammatory activity in Escherichia coli O6:K2:H1-induced human M2 macrophage assessed as change in LTB4 level at 1 uM preincubated for 10 mins followed by Escherichia coli O6:K2:H1-stimulation and measured after 180 mins by UPLC-MS/MS analysis relative to control
[21] = tested on: Macrophage; assay: Antiinflammatory activity in Escherichia coli O6:K2:H1-induced human M2 macrophage assessed as change in 15-HEPE level at 10 uM preincubated for 10 mins followed by Escherichia coli O6:K2:H1-stimulation and measured after 180 mins by UPLC-MS/MS analysis relative to control
[22] = tested on: Macrophage; assay: Antiinflammatory activity in Escherichia coli O6:K2:H1-induced human M2 macrophage assessed as change in 12-HETE level at 10 uM preincubated for 10 mins followed by Escherichia coli O6:K2:H1-stimulation and measured after 180 mins by UPLC-MS/MS analysis relative to control
[23] = tested on: Macrophage; assay: Antiinflammatory activity in Escherichia coli O6:K2:H1-induced human M2 macrophage assessed as change in 5.15-dlHETE level at 10 uM preincubated for 10 mins followed by Escherichia coli O6:K2:H1-stimulation and measured after 180 mins by UPLC-MS/MS analysis relative to control
[24] = tested on: Macrophage; assay: Antiinflammatory activity in Escherichia coli O6:K2:H1-induced human M2 macrophage assessed as change in PGF2alpha level at 10 uM preincubated for 10 mins followed by Escherichia coli O6:K2:H1-stimulation and measured after 180 mins by UPLC-MS/MS analysis relative to control

## O=C(Cc1ccc(Oc2nc3ccccc3s2)cc1F)NCCc1ccc(F)cc1
[1]
  Activity: 110%
[2]
  Activity: 113%
[3]
  Activity: 74%
[4]
  Activity: 109%
[5]
  Activity: 127%
[6]
  Activity: 94%
[7]
  Activity: 134%
[8]
  Activity: 181%
[9]
  Activity: 151%
[10]
  Activity: 66%
[11]
  Activity: 72%
[12]
  Activity: 73%
[13]
  Activity: 103%
[14]
  Activity: 78%
[15]
  Activity: 94%
[16]
  Activity: 82%
[17]
  Activity: 61%
[18]
  Activity: 64%
[19]
  Activity: 68%
[20]
  Activity: 72%
[21]
  Activity: 120%
[22]
  Activity: 114%
[23]
  Activity: 101%
[24]
  Activity: 45%
